Laboratory results reported in US5276205A, “Insecticides” (ICI Americas Inc., priority 1989, dated 1994).

Experiments:
Type in all cases: in vivo
[1] = system: Housefly [Musca domestica]; experiment: Housefly insecticidal test (HF); conditions: μg of test compound per 25 female flies; mortality after 48 hours; max. test level 100 μg
Protocol: (§1) The compounds in Table 1 above were tested for insecticidal activity using the following testing procedures. LC50 values, based on the results of these tests and calculated according to dosage-mortality curves, are expressed in Table 2.
Housefly [Musca domestica]
The test compound was diluted in acetone and aliquots pipetted onto the bottom of aluminum dishes. To ensure even spreading of the chemical on the bottom of the dishes, 1 ml of acetone containing 0.01% peanut oil was also added to each dish. After all solvents had evaporated, the dishes were placed in circular cardboard cages containing 25 female houseflies, 1-2 days old. The cages were covered on the bottom with cellophane and on the top with tulle netting, and each contained a sugar-water saturated cotton plug for maintenance of the flies. Mortality was recorded after 48 hours. Test levels ranged from 100 μg/25 female houseflies downward. The LC-50 value is expressed below in Table 2 under the heading "HF", in terms of μg of the test compound per 25 female flies.

[2] = system: Black Bean Aphid [Aphis fabae (Scop.)]; experiment: Black bean aphid insecticidal test (BBA); conditions: percent in sprayed solution; mortality after 48 hours; max. 0.05%
Protocol: as §1
Black Bean Aphid [Aphis fabae (Scop.)]
Nasturtium plants (Tropaeolum sp.) approximately 5 cm tall, were transplanted into sandy loam soil in small cups and infested with 25-50 black bean aphids of mixed ages. Twenty-four hours later they were sprayed to the point of runoff with 50-50 acetone-water solutions of the test compound. Treated plants were held in the greenhouse and mortality was recorded after 48 hours. Test concentrations ranged from 0.05% downward. The LC-50 value is expressed below in Table 2 under the heading "BBA" in terms of percent of the test compound in the sprayed solution.

[3] = system: two-spotted mite [Tetranychus urticae (Koch)], adults; experiment: Two-spotted mite acaricidal test, adults (2SM-A); conditions: percent in dip solution, mortality after 5-7 days, max. 0.05%
Source text: (§2) Acaricidal Evaluation Test
(§3) The two-spotted mite (2SM) [Tetranychus urticae (Koch)] was employed in tests for miticides. The test procedure was as follows:
(§4) Pinto bean plants (Phaseolus sp.), approximately 10 cm tall, were transplanted into sandy loam soil in small cups and thoroughly infested with two-spotted mites of mixed ages and sexes. Twenty-four hours later the infested plants were inverted and dipped for 2-3 seconds in 50-50 acetone-water solutions of the test compound. Treated plants were held in the greenhouse, and 5-7 days later mortality was determined for both adult mites and the nymphs hatching from eggs which were on the plants at the time of treatment. Test concentrations ranged from 0.05% downward. The LC-50 value is expressed below in Table 2 under the headings "2SM-A" (i.e., adults) and "2SM-E" (i.e. eggs) in terms of percent concentration of the test compound in the solution.

[4] = system: two-spotted mite [Tetranychus urticae (Koch)], eggs; experiment: Two-spotted mite acaricidal test, eggs (2SM-E); conditions: percent in dip solution, mortality after 5-7 days, max. 0.05%
Source text: as §2, §3, §4

[5] = system: Tobacco Budworm [Heliothis virescens (Fabricius)], eggs; experiment: Tobacco budworm egg test (TBW-E); conditions: 2-day old eggs dipped; percent in acetone solution; max. 0.1%
Protocol: The compounds in Table 1 above were tested for insecticidal activity using the following testing procedures.
Tobacco Budworm [Heliothis virescens (Fabricius)]
Eggs: Paper towel patches of 2-day old eggs of the tobacco budworm were dipped in acetone solutions of the test compound and placed in petri dishes containing a portion of larval rearing medium. […] Test concentrations ranged from 0.1% downward. The LC-50 value is expressed below in Table 2 under the heading "TBW-E" in terms of percent of the test compound in the solution.

[6] = system: Western Spotted Cucumber Beetle Larvae [Diabrotica undecimpunctata (Mannherheim)]; experiment: Western spotted cucumber beetle larvae soil test (Diab); conditions: ppm in soil; max. 25 ppm
Protocol: as §1
Western Spotted Cucumber Beetle Larvae [Diabrotica undecimpunctata (Mannherheim)]
Ten grams of moist potting soil was placed in a plastic cup. The test compound was dissolved in acetone. A 0.05 ml aliquot of the test sample, diluted to the desired concentration, was added to the soil. The cup was capped and the soil was mixed on a vortex mixer for approximately 15 seconds. An indentation was made on the surface of the soil and approximately 50 Diabrotica eggs were added. The eggs were covered with soil and maintained at room temperature (approximately 70° F. or 21° C.). Four days later a section of Romaine lettuce (Latuca sativa) leaf was placed in the treated cups. One week later the cups were examined for live larvae. Test concentrations ranged from 25 ppm downward. The LC-50 value is expressed below in Table 2 under the heading "Diab" in terms of ppm of the test compound in the soil.

[7] = system: Cabbage Looper [Trichoplusia ni (Hubner)]; experiment: Cabbage looper insecticidal test (CL); conditions: second-instar larvae; percent in solution; mortality 3-5 days later; max. 0.1%
Protocol: as §1
Cabbage Looper [Trichoplusia ni (Hubner)]
The test compound was diluted in a 50-50 acetone-water solution. Cotyledons of hyzini squash (Calabacita abobrinha), approximately 1×1.5 inches, were immersed in the test solutions for 2-3 seconds and placed on a wire screen to dry. The dried leaves were placed in petri dishes containing a moistened piece of filter paper and infested with 5 second-instar cabbage looper larvae. The dishes were placed in a high humidity chamber. Mortality of the larvae was recorded 3-5 days later. Test concentrations ranged from 0.1% downward. The LC-50 value is expressed below in Table 2 under the heading "CL" in terms of percent of the test compound in solution.

| Compound | LC50 HF [1] | LC50 BBA [2] | LC50 2-SM A [3] | LC50 2-SM E [4] | LC50 TBW E [5] | LC50 Diab. [6] | LC50 CL [7] |
| --- | --- | --- | --- | --- | --- | --- | --- |
| CC(C)C(O)(CCc1cccc(Oc2ccccc2)c1)Cc1cccc(Cl)c1 (centres unmarked) [Compound 5] | 84 µg | 0.05% | > 0.05% | > 0.05% | > 0.1% | > 25 ppm (soil) | 0.008% |
| OC(CCc1cccc(Oc2ccccc2)c1)(Cc1ccc(Cl)cc1)C1CC1 (centres unmarked) [Compound 3] | > 100 µg | > 0.05% | > 0.05% | > 0.05% | > 0.1% | > 25 ppm (soil) | 0.025% |
| CC(C)C(O)(CCc1cccc(Oc2ccccc2)c1)Cc1ccc(Cl)cc1 (centres unmarked) [Compound 1, 1-(4-chlorophenyl)-2-isopropyl-4-(3-phenoxyphenyl)-2-butanol] | > 100 µg | 0.05% | > 0.05% | > 0.05% | > 0.1% | > 25 ppm (soil) | 0.015% |
| OC(CCc1cccc(Oc2ccccc2)c1)(Cc1cccc(Cl)c1)C1CC1 (centres unmarked) [Compound 4] | > 100 µg | > 0.05% | > 0.05% | > 0.05% | > 0.1% | > 25 ppm (soil) | 0.035% |
| Cc1ccc(CC(O)(CCc2cccc(Oc3ccccc3)c2)C(C)C)cc1 (centres unmarked) [Compound 2] | > 100 µg | 0.05% | > 0.05% | > 0.05% | > 0.1% | > 25 ppm (soil) | 0.016% |
